Source: patent US9931350B2, “Anti-infective and osteogenic compositions and methods of use” (BRIGHAM YOUNG UNIVERSITY, priority 2014, dated 2018)
Values after ≈ are worked out from the molar mass of the structure shown.

How the values were obtained:
[1] = system: tobramycin-resistant P. aeruginosa (TRPA); experiment: MIC against tobramycin-resistant P. aeruginosa; format: cell-based; conditions: Pseudomonas aeruginosa; TSB, 37° C., 24 hours
Procedure: (§1) Representative Procedure for Measuring MIC Values: A suspension is prepared of bacteria containing ˜10^6CFU (colony forming units)/mL from a culture incubated in TSB at 37° C. for 24 hours. Aliquots of 1 mL of the suspension are added to test tubes containing 1 mL TSB and incrementally varied concentrations of CSA compound. The samples are subjected to stationary incubation at 37° C. for 24 hours. Sample turbidity is determined by measuring absorption at 760 nm (HP 8453 UV-Visible Chemstation, Hewlett Packard). Additionally, an alliquot from each of the samples showing no measurable turbidity is subcultured on TSA plates (alliquots were diluted to provide fewer than 300 CFU). Colonies that grow on the subculture after overnight incubation are counted and the number of CFU/mL in the samples is calculated. The calculated values are compared to the number of CFU/mL in the original inoculum. MIC values are determined as the concentrations of the studied compounds at which the number of CFU/mL remained constant or decreased after incubation for 24 hours. CSA compounds were screened against methicillin-resistant S. aureus (MRSA) and tobramycin-resistant P. aeruginosa (TRPA).

[2] = system: open fracture; experiment: Mammalian open fracture model, without bacteria inoculation; format: in vivo, rats
Source text: (§2) In this model, infection was initiated by delivery of 10^4 CFU of pathogenic Staphlococcus aureus in ACS at the time of surgery. […] The primary outcome measure was the number of animals culled with infected fractures. Animal health and radiographic bone healing were monitored by an experienced veterinarian in a blinded fashion to inoculation or treatment. Animals diagnosed as having progressively deteriorating condition with XRs showing evidence of infection were culled and infection confirmed by culture swab post-mortem. Secondary outcome measures included union at 3 weeks and 6 weeks (excluding pin-slippage), and bone callus microCT measures at 6 weeks.

[3] = system: ectopic bone formation; experiment: Mammalian ectopic bone formation model; format: in vivo, mouse
Source text: Bone formation was examined by XR (Faxitron) and quantified by microCT (Skyscan 1174). Bone nodules were also examined by histology.

[4] = system: methicillin-resistant S. aureus (MRSA); experiment: MIC against methicillin-resistant S. aureus; format: cell-based; conditions: Staphylococcus aureus, TSB, 37° C., 24 hours
Procedure: as §1

[5] = system: Staphlococcus aureus; experiment: Mammalian open fracture model, inoculated with S. aureus; format: in vivo, rats
Source text: as §2

Row | Compound | MIC [1] [µg/mL] | Union rate at 3 weeks ([2]; 3 weeks, treated groups with and without inoculation) [%] | Union rate by 6 weeks ([2]; 6 weeks) | Pin Slip Cull Rate ([2]; no bacteria) [%] | Infected Cull Rate ([2]; no bacteria, 250 μg CSA-90 and/or 10 μg rhBMP-2 via ACS) [%] | # Infected Culls ([2]; no bacteria, animals/group) | # Pin Slips ([2]; no bacteria, animals/group) | Mean bone volume by microCT ([3]; 25 μg CSA-90 added to 10 μg rhBMP-2 in ACS, P=0.02) | Mean bone volume by microCT ([3]; 250 μg CSA-90 added to 10 μg rhBMP-2 in ACS, P<0.01) | Osteoclast number, histological assessment ([3]; CSA-90 treatment) | Histological assessment of bone nodules ([3]; rhBMP-2 treated groups, CSA-90 treatment alone (250 μg)) | MIC [4] [µg/mL] | Pin Slip Cull Rate ([5]; 10^4 cfu Staph) [%] | Infected Cull Rate ([5]; 10^4 cfu Staph, 250 μg CSA-90 and/or 10 μg rhBMP-2 via ACS) [%] | # Infected Culls ([5]; 10^4 cfu Staph, animals/group) | # Pin Slips ([5]; 10^4 cfu Staph, animals/group) | Animals culled with a pin slip (no infection seen in culture) ([5]; inoculated group) | Animals culled with infected fractures ([5]; inoculated with S. aureus)
1 | CCCCCN(CCCCC)CCC[C@@H](C)[C@H]1CC[C@H]2[C@@H]3[C@H](OCCCN)C[C@@H]4C[C@H](OCCCN)CC[C@]4(C)[C@H]3C[C@H](OCCCN)[C@]12C [CSA-90] | 3 (≈ 4.25 µM) | ~50 | increased but not to 100% | 0 | 0 | 0/6 | 0/6 | significantly increased | significantly increased | no significant decrease | evidence of localized tissue mineralization | 0.6 (≈ 0.851 µM) | 20 | 0 | 0/5 | 1/5 | one | no infected culls
2 | CCCCCCCCN(CCCCCCCC)CCC[C@@H](C)[C@H]1CC[C@H]2[C@@H]3[C@H](OCCCN)C[C@@H]4C[C@H](OCCCN)CC[C@]4(C)[C@H]3C[C@H](OCCCN)[C@]12C [CSA-91] | 6 (≈ 7.6 µM) | – | – | – | – | – | – | – | – | – | – | 5 (≈ 6.33 µM) | – | – | – | – | – | –
